Results on 15 compounds are retold here after patent US9309242B2, “Substituted pyrido[2,3-b]pyrazines as FGFR kinase inhibitors” (priority 2011, dated 2016).

Each structure is given as a SMILES string. Counter-ions that a name gives are not always drawn.

What is called melting point is the temperature, or range, at which the solid turns liquid. `COc1cc(OC)cc(N(Cc2ncc[nH]2)c2ccc3ncc(-c4cnn(C)c4)nc3n2)c1` (as salt: tartrate) [Compound 24] showed a melting point of 176 °C.

The compound `COc1cc(OC)c(F)c(N(Cc2ncc[nH]2)c2ccc3ncc(-c4cnn(C)c4)nc3n2)c1` (as salt: lactate) [Compound 23] registered a melting point of 118 °C.

`COc1cc(OC)c(F)c(N(Cc2ncc[nH]2)c2ccc3ncc(-c4cnn(C)c4)nc3n2)c1` (as salt: sulfate) [Compound 23] yielded a melting point of 198 °C.

`COc1cc(OC)c(F)c(N(Cc2ncc[nH]2)c2ccc3ncc(-c4cnn(C)c4)nc3n2)c1` (as salt: fumarate) [Compound 23] came in with a melting point of 186 °C.

In turn, `COc1cc(OC)cc(N(CCN2CCOCC2)c2ccc3ncc(-c4cnn(C)c4)nc3n2)c1` (as salt: hydrochloride) (hydrate or solvate) [Compound 146] showed a melting point of 143 °C.

`COc1cc(OC)c(F)c(N(Cc2ncn(C3CNC3)n2)c2ccc3ncc(-c4cnn(C)c4)nc3n2)c1` displayed a melting point of 126 °C.

In turn, `COc1cc(OC)c(F)c(N(Cc2ncc[nH]2)c2ccc3ncc(-c4cnn(C)c4)nc3n2)c1` (as salt: phosphate) [Compound 23] had a melting point of 175 °C.

Compound `COc1cc(OC)cc(N(Cc2ncc[nH]2)c2ccc3ncc(-c4cnn(C)c4)nc3n2)c1` (as salt: sulphate) [Compound 24] displayed a melting point of 266 °C.

Take `CNCCN(c1ccc2ncc(-c3cn[nH]c3)nc2n1)c1c(F)c(OC)cc(OC)c1F` (as salt: HCl) (hydrate or solvate) [Compound 106]: the melting point amounted to 250 °C.

For `COc1cc(OC)cc(N(Cc2ncc[nH]2)c2ccc3ncc(-c4cnn(C)c4)nc3n2)c1` (as salt: fumarate) [Compound 24], the melting point is 222 °C.

Compound `COc1cc(/N=c2\ccc3ncc(-c4cnn(C)c4)nc3n2CC2CCCCO2)cc(OC)c1` (stereo not drawn) displayed a melting point of 210 °C.

For the compound `COc1cc(/N=c2\ccc3ncc(-c4cnn(C)c4)nc3n2Cc2cc[nH]n2)c(F)c(OC)c1` (as salt: HCl) (hydrate or solvate) [Compound 115], the melting point is 130 °C.

In turn, `CNCCN(c1ccc2ncc(-c3cnn(C)c3)nc2n1)c1c(F)c(OC)cc(OC)c1F` (hydrate or solvate) [Compound 3] returned a melting point of 134 °C.

Regarding `COc1cc(OC)c(F)c(N(Cc2ncc[nH]2)c2ccc3ncc(-c4cnn(C)c4)nc3n2)c1` (as salt: hydrochloric acid salt) [Compound 23], the melting point was 216 °C.

With `COc1cc(OC)cc(N(Cc2ncc[nH]2)c2ccc3ncc(-c4cnn(C)c4)nc3n2)c1` (as salt: phosphate) [Compound 24], the melting point came to 253 °C.
